This is an account of results in patent US20260184662A1, “COMPOSITE OF ACID AND SALT, AND PREPARATION METHOD THEREFOR” (NANJING NUTRABUILDING BIO-TECH CO., LTD., priority 2022, published 2026).

A short description of series [1]: Determination of moisture contents with KF moisture meter at different time points. The format is physicochemical. Particulars: temperature 23° C., humidity 92.5%. The source says: For R-3-hydroxybutyric acid, potassium R-3-hydroxybutyrate, mixture of R-3-hydroxybutyric acid and potassium R-3-hydroxybutyrate, and R-3-hydroxybutyric acid·potassium R-3-hydroxybutyrate complex of Example 1, under a certain condition, KF moisture meter was used to determine the moisture contents at different time points.
For 3-hydroxybutyric acid, potassium 3-hydroxybutyrate, mixture of 3-hydroxybutyric acid and potassium 3-hydroxybutyrate, and 3-hydroxybutyric acid·potassium 3-hydroxybutyrate complex of Example 7, under a certain condition, KF moisture meter was used to determine the moisture contents at different time points.
For S-3-hydroxybutyric acid, potassium S-3-hydroxybutyrate, mixture of S-3-hydroxybutyric acid and potassium S-3-hydroxybutyrate, and S-3-hydroxybutyric acid·potassium S-3-hydroxybutyrate complex of Example 13, under a certain condition, KF moisture meter was used to determine the moisture contents at different time points.
For R-3-hydroxybutyric acid, calcium R-3-hydroxybutyrate, mixture of R-3-hydroxybutyric acid and calcium R-3-hydroxybutyrate, and R-3-hydroxybutyric acid·calcium R-3-hydroxybutyrate complex of Example 19, under a certain condition, KF moisture meter was used to determine the moisture contents at different time points.
For 3-hydroxybutyric acid, calcium 3-hydroxybutyrate, mixture of 3-hydroxybutyric acid and calcium 3-hydroxybutyrate, and 3-hydroxybutyric acid·calcium 3-hydroxybutyrate complex of Example 25, under a certain condition, KF moisture meter was used to determine the moisture contents at different time points.
For S-3-hydroxybutyric acid, calcium S-3-hydroxybutyrate, mixture of S-3-hydroxybutyric acid and calcium S-3-hydroxybutyrate, and S-3-hydroxybutyric acid·calcium S-3-hydroxybutyrate complex of Example 31, under a certain condition, KF moisture meter was used to determine the moisture contents at different time points.
For R-3-hydroxybutyric acid, magnesium R-3-hydroxybutyrate, mixture of R-3-hydroxybutyric acid and magnesium R-3-hydroxybutyrate, and R-3-hydroxybutyric acid·magnesium R-3-hydroxybutyrate complex of Example 37, under a certain condition, KF moisture meter was used to determine the moisture contents at different time points.
For 3-hydroxybutyric acid, magnesium 3-hydroxybutyrate, mixture of 3-hydroxybutyric acid and magnesium 3-hydroxybutyrate, and 3-hydroxybutyric acid·magnesium 3-hydroxy butyrate complex of Example 43, under a certain condition, KF moisture meter was used to determine the moisture contents at different time points.
For S-3-hydroxybutyric acid, magnesium S-3-hydroxybutyrate, mixture of S-3-hydroxybutyric acid and magnesium S-3-hydroxybutyrate, and S-3-hydroxybutyric acid·magnesium S-3-hydroxybutyrate complex of Example 49, under a certain condition, KF moisture meter was used to determine the moisture contents at different time points.
For R-3-hydroxypentanoic acid, sodium R-3-hydroxypentanoate, mixture of R-3-hydroxypentanoic acid and sodium R-3-hydroxypentanoate, and R-3-hydroxypentanoic acid·sodium R-3-hydroxypentanoate complex of Example 55, under a certain condition, KF moisture meter was used to determine the moisture contents at different time points.
For 3-hydroxypentanoic acid, sodium 3-hydroxypentanoate, mixture of 3-hydroxypentanoic acid and sodium 3-hydroxypentanoate, and 3-hydroxypentanoic acid·sodium 3-hydroxypentanoate complex of Example 61, under a certain condition, KF moisture meter was used to determine the moisture contents at different time points.
For S-3-hydroxypentanoic acid, sodium S-3-hydroxypentanoate, mixture of S-3-hydroxypentanoic acid and sodium S-3-hydroxypentanoate, and S-3-hydroxypentanoic acid·sodium S-3-hydroxypentanoate complex of Example 67, under a certain condition, KF moisture meter was used to determine the moisture contents at different time points.

Series [2] is described as follows: Stability of complexes at 30-80° C. The format is physicochemical. The source says:
For R-3-hydroxybutyric acid, potassium R-3-hydroxybutyrate, mixture of R-3-hydroxybutyric acid and potassium R-3-hydroxybutyrate, and R-3-hydroxybutyric acid·potassium R-3-hydroxybutyrate complex of Example 1, […]
For 3-hydroxybutyric acid, potassium 3-hydroxybutyrate, mixture of 3-hydroxybutyric acid and potassium 3-hydroxybutyrate, and 3-hydroxybutyric acid·potassium 3-hydroxybutyrate complex of Example 7, […]
For S-3-hydroxybutyric acid, potassium S-3-hydroxybutyrate, mixture of S-3-hydroxybutyric acid and potassium S-3-hydroxybutyrate, and S-3-hydroxybutyric acid·potassium S-3-hydroxybutyrate complex of Example 13, […]
For R-3-hydroxybutyric acid, calcium R-3-hydroxybutyrate, mixture of R-3-hydroxybutyric acid and calcium R-3-hydroxybutyrate, and R-3-hydroxybutyric acid·calcium R-3-hydroxybutyrate complex of Example 19, […]
For 3-hydroxybutyric acid, calcium 3-hydroxybutyrate, mixture of 3-hydroxybutyric acid and calcium 3-hydroxybutyrate, and 3-hydroxybutyric acid·calcium 3-hydroxybutyrate complex of Example 25, […]
For S-3-hydroxybutyric acid, calcium S-3-hydroxybutyrate, mixture of S-3-hydroxybutyric acid and calcium S-3-hydroxybutyrate, and S-3-hydroxybutyric acid·calcium S-3-hydroxybutyrate complex of Example 31, […]
For R-3-hydroxybutyric acid, magnesium R-3-hydroxybutyrate, mixture of R-3-hydroxybutyric acid and magnesium R-3-hydroxybutyrate, and R-3-hydroxybutyric acid·magnesium R-3-hydroxybutyrate complex of Example 37, […]
For 3-hydroxybutyric acid, magnesium 3-hydroxybutyrate, mixture of 3-hydroxybutyric acid and magnesium 3-hydroxybutyrate, and 3-hydroxybutyric acid·magnesium 3-hydroxybutyrate complex of Example 43, […]
For S-3-hydroxybutyric acid, magnesium S-3-hydroxybutyrate, mixture of S-3-hydroxybutyric acid and magnesium S-3-hydroxybutyrate, and S-3-hydroxybutyric acid·magnesium S-3-hydroxybutyrate complex of Example 49, […]
For R-3-hydroxypentanoic acid, sodium R-3-hydroxypentanoate, mixture of R-3-hydroxypentanoic acid and sodium R-3-hydroxypentanoate, and R-3-hydroxypentanoic acid·sodium R-3-hydroxypentanoate complex of Example 55, […]
For 3-hydroxypentanoic acid, sodium 3-hydroxypentanoate, mixture of 3-hydroxypentanoic acid and sodium 3-hydroxypentanoate, and 3-hydroxypentanoic acid·sodium 3-hydroxypentanoate complex of Example 61, […]
For S-3-hydroxypentanoic acid, sodium S-3-hydroxypentanoate, mixture of S-3-hydroxypentanoic acid and sodium S-3-hydroxypentanoate, and S-3-hydroxypentanoic acid·sodium S-3-hydroxypentanoate complex of Example 67, […]

Like-named read-outs stand apart in the source and are kept apart here.

magnesium R-3-hydroxybutyrate: the “moisture content (%)” value in series [1] (30 min) stood at 0.82%; in series [1] (1 h), 1.22%; in series [1] (2 h) it was 2.13%; in series [1] (4 h) it was 4.22%; in series [1] (6 h), 6.35%; in series [1] (7 h), 8.04%. In addition, the “moisture content (%)” value in series [1] (11 h) is recorded as 12.44%; in series [1] (22 h), 18.68%. The Stability result in series [2] (30° C.) is listed as “unchanged”; in series [2] (40° C.) it was “unchanged”; in series [2] (60° C.), “melted”; in series [2] (70° C.), “melted”; in series [2] (80° C.) it was “melted”.

With `C[C@H](O)CC(=O)O` [S-3-hydroxybutyric acid], the “moisture content (%)” value came out at 1.23% in series [1] (30 min); 2.28% in series [1] (1 h); 4.05% in series [1] (2 h); 6.32% in series [1] (4 h); 9.53% in series [1] (6 h); 10.62% in series [1] (7 h). Further, the “moisture content (%)” value in series [1] (11 h) is given as 17.08%; in series [1] (22 h), 32.95%. Moreover, the Stability result is recorded as “unchanged” in series [2] (30° C.); “melted” in series [2] (50° C.); “melted” in series [2] (60° C.); “melted” in series [2] (70° C.); “melted” in series [2] (80° C.).

For the compound `C[C@H](O)CC(=O)O.C[C@H](O)CC(=O)[O-].[K+]` [S-3-hydroxybutyric acid·potassium S-3-hydroxybutyrate], the “moisture content (%)” value in series [1] (30 min) is reported as 0.72%; in series [1] (1 h), 1.34%; in series [1] (2 h), 196%; in series [1] (4 h) it was 3.72%; in series [1] (6 h), 5.99%; in series [1] (7 h) it was 6.82%. The “moisture content (%)” value came out at 9.83% in series [1] (11 h) and 18.28% in series [1] (22 h). Also, the Stability entry in series [2] (30° C.) is listed as “unchanged”; in series [2] (40° C.), “unchanged”; in series [2] (50° C.), “unchanged”; in series [2] (60° C.) it was “unchanged”; in series [2] (80° C.), “melted”.

On to `C[C@H](O)CC(=O)O.C[C@H](O)CC(=O)[O-].C[C@H](O)CC(=O)[O-].[Mg+2]` [S-3-hydroxybutyric acid·magnesium S-3-hydroxybutyrate], for which the “moisture content (%)” value in series [1] (30 min) is on record as 0.58%; in series [1] (1 h) it was 0.98%; in series [1] (2 h) it was 1.79%; in series [1] (4 h), 3.16%; in series [1] (6 h), 4.58%; in series [1] (7 h) it was 5.64%. In addition, the “moisture content (%)” value was 8.86% in series [1] (11 h) and 14.74% in series [1] (22 h). The Stability result is given as “unchanged” in series [2] (30° C.); “unchanged” in series [2] (40° C.); “unchanged” in series [2] (50° C.); “unchanged” in series [2] (60° C.); “melted” in series [2] (80° C.).

For the compound `CC[C@H](O)CC(=O)[O-].[Na+]` [Sodium S-3-hydroxypentanoate, sodium S-3-hydroxypentanoate], the “moisture content (%)” value in series [1] (30 min) was determined as 0.91%; in series [1] (1 h) it was 1.73%; in series [1] (2 h), 2.91%; in series [1] (4 h), 4.43%; in series [1] (6 h), 6.22%; in series [1] (7 h), 6.79%. Besides, the figures for the “moisture content (%)” value in series [1] (11 h) and in series [1] (22 h) were 10.61% and 20.44%, respectively. Besides, the Stability entry in series [2] is reported as “unchanged”.

Consider `C[C@@H](O)CC(=O)O.C[C@@H](O)CC(=O)[O-].[K+]` [R-3-hydroxybutyric acid·potassium R-3-hydroxybutyrate], for which the “moisture content (%)” value stood at 0.64% in series [1] (30 min); 1.24% in series [1] (1 h); 1.89% in series [1] (2 h); 3.66% in series [1] (4 h); 5.89% in series [1] (6 h); 6.78% in series [1] (7 h). For the same compound, the figures for the “moisture content (%)” value in series [1] (11 h) and in series [1] (22 h) were 9.77% and 19.45%, respectively. For the same compound, the Stability entry in series [2] (30° C.) is reported as “unchanged”; in series [2] (40° C.) it was “unchanged”; in series [2] (50° C.), “unchanged”; in series [2] (60° C.) it was “unchanged”; in series [2] (80° C.) it was “melted”.

Take `C[C@@H](O)CC(=O)O.C[C@@H](O)CC(=O)[O-].C[C@@H](O)CC(=O)[O-].[Ca+2]` [R-3-hydroxybutyric acid·calcium R-3-hydroxybutyrate]: the “moisture content (%)” value in series [1] (30 min) was 0.54%; in series [1] (1 h), 1.02%; in series [1] (2 h) it was 1.96%; in series [1] (4 h), 3.26%; in series [1] (6 h), 4.79%; in series [1] (7 h) it was 5.39%. Also, the “moisture content (%)” value in series [1] (11 h) came to 8.65%; in series [1] (22 h), 14.45%. Further, the Stability entry is on record as “unchanged” in series [2] (30° C.); “unchanged” in series [2] (40° C.); “unchanged” in series [2] (50° C.); “unchanged” in series [2] (60° C.); “melted” in series [2] (80° C.).

For the compound `CC(O)CC(=O)O.CC(O)CC(=O)[O-].CC(O)CC(=O)[O-].[Ca+2]` (stereo not shown) [3-hydroxybutyric acid·calcium 3-hydroxybutyrate], the “moisture content (%)” value in series [1] (30 min) worked out at 0.56%; in series [1] (1 h), 1.12%; in series [1] (2 h) it was 1.86%; in series [1] (4 h) it was 3.19%; in series [1] (6 h), 4.68%; in series [1] (7 h) it was 5.45%. The “moisture content (%)” value came out at 8.72% in series [1] (11 h) and 14.43% in series [1] (22 h). Moreover, the Stability entry is reported as “unchanged” in series [2] (30° C.); “unchanged” in series [2] (40° C.); “unchanged” in series [2] (50° C.); “unchanged” in series [2] (60° C.); “melted” in series [2] (80° C.).
